Results as given in patent US20220185795A1, “COMPOUND FORM HAVING ENHANCED BIOAVAILABILITY AND FORMULATIONS THEREOF” (PTC THERAPEUTICS, INC., priority 2019, published 2022).
In brackets after ≈: the same amount, converted by molar mass. Entries after “also recorded” stand apart in the source; their conditions may differ.

Legend:
[1] = Storage stability study of SDD tablets; type: physicochemical; conditions: tablet form, a year at 40° C./75% relative humidity (RH)
Excerpt: Granules were obtained through dry granulation, milling and mixing process. A dry granulation was obtained by sieving together a mixture of microcrystalline cellulose, lactose monohydrate, croscarmellose sodium, Poloxamer 407, colloidal silicon dioxide and the SDD, then adding magnesium stearate and mixing to obtain a first admixture. The density of the first admixture was increased by dry granulation to provide a first portion of granules. A second portion of magnesium stearate was sieved with a 30-mesh sieve, then combined with the first portion of granules and mixed in a V-blender for 2 minutes to obtain a second admixture. The second portion of granules were then obtained using a roller compactor and milled. The milled granules were added to the V-blender and mixed with the extragranular excipient's microcrystalline cellulose, lactose monohydrate and croscarmellose sodium. The extragranular excipients were sieved through a 30-mesh sieve, then added to the V-blender and mixed with the granules for 2 minutes to provide a third admixture. The third admixture was compressed into different tablet strengths using die that provided conforming tablet sizes.
Active formulation tablets having the composition as described in Table 10 were tested for stability under different storage conditions.

[2] = Polymorph stability studies; type: physicochemical; conditions: crystalline polymorphs
Excerpt: (§1) The terms “Form A” and “Form B” refer to forms of Compound A that are purified anhydrous crystalline polymorph forms.

[3] = Biopharmaceutics Classification System (BCS) class; conditions: stable crystalline form
Excerpt: The Biopharmaceutics Classification System (BCS) is a system developed by the U.S. Food and Drug Administration (FDA) to differentiate forms of active pharmaceutical ingredients (API) based on their solubility and intestinal permeability, as follows: Class I: high solubility, high permeability; Class II: low solubility, high permeability; Class III: high solubility, low permeability, and Class IV: low solubility, low permeability. Formulating compositions of a BCS II-type API to enhance solubility and thus improve bioavailability can be a challenge.
as §1

[4] = pKa of aromatic amino group; type: physicochemical; conditions: weakly basic aromatic amino group
[5] = Dynamic Vapor Sorption (DVS); type: physicochemical; conditions: at 95% RH
[6] = Solubility in aqueous phosphate buffer and FaSSIF, pH 6.5; type: physicochemical

SMILES: Cc1nc2ccc(F)cc2n1-c1nc(N)c(F)c(Nc2ccc(C(F)(F)F)cc2)n1 [Compound A, 5-fluoro-2-(6-fluoro-2-methyl-1H-benzimidazol-1-yl)-N-[4-(trifluoromethyl)phenyl]pyrimidine-4,6-diamine]
- chemical and physical stability (XRPD and mDSC) [1]: both chemically and physically stable in tablet form and remained in an amorphous state

SMILES: Cc1nc2ccc(F)cc2n1-c1nc(N)c(F)c(Nc2ccc(C(F)(F)F)cc2)n1 [Form A, 5-fluoro-2-(6-fluoro-2-methyl-1H-benzimidazol-1-yl)-N-[4-(trifluoromethyl)phenyl]pyrimidine-4,6-diamine]
- polymorph stability [2]: more stable than Form B; also recorded: most stable anhydrous crystalline form
- BCS class [3]: BCS II substance

SMILES: Cc1nc2ccc(F)cc2n1-c1nc(N)c(F)c(Nc2ccc(C(F)(F)F)cc2)n1 [Form I, 5-fluoro-2-(6-fluoro-2-methyl-1H-benzimidazol-1-yl)-N-[4-(trifluoromethyl)phenyl]pyrimidine-4,6-diamine]
- pKa [4]: < 3
- water absorption [5]: approximately 1.3%
- solubility ([6]; Fasted State Intestinal Fluid (FaSSIF) at pH 6.5): ~18 µg/mL (≈ 42.8 µM)
- solubility ([6]; aqueous phosphate buffer at pH 6.5): < 1 µg/mL

SMILES: Cc1nc2ccc(F)cc2n1-c1nc(N)c(F)c(Nc2ccc(C(F)(F)F)cc2)n1 [Form B, 5-fluoro-2-(6-fluoro-2-methyl-1H-benzimidazol-1-yl)-N-[4-(trifluoromethyl)phenyl]pyrimidine-4,6-diamine]
- polymorph stability [2]: converts to Form A
